Data taken from the Kinase Knowledgebase extract (Sharma et al. 2016).

target: PIK3CA (human) (UniProt P42336); test: Assessment of PIK3CA Kinase Activity
Sequence (P42336 whole entry, looked up): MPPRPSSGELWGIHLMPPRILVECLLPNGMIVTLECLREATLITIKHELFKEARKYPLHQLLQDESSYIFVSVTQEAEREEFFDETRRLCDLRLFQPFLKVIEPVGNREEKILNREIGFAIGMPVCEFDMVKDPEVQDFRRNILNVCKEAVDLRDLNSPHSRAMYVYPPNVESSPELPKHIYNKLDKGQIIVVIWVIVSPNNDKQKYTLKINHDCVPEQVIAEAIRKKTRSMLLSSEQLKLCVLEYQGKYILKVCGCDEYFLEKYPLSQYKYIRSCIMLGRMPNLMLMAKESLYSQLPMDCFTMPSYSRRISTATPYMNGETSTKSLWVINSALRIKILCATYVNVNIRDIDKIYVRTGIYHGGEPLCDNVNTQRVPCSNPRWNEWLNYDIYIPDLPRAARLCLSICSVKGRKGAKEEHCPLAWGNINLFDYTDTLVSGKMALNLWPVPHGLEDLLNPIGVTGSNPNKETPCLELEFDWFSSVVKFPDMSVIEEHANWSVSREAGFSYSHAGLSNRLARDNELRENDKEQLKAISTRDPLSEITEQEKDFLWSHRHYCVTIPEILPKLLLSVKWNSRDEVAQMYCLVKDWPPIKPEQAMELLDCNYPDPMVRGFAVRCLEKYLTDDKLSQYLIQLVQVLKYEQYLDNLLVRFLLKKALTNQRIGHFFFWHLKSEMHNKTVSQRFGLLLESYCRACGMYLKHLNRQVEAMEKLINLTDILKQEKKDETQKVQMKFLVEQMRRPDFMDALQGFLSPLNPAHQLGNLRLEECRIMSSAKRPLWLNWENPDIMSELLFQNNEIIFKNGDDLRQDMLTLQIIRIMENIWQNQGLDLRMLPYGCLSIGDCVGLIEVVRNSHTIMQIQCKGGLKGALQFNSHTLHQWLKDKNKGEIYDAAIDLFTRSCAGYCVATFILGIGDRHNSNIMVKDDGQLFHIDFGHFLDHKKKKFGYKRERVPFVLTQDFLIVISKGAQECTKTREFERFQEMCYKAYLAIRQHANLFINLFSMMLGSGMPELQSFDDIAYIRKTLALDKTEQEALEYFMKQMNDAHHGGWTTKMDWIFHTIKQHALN

Row | Compound | IC50 [nM]
1 | CN(C)C(=O)c1ccc(NC(=O)Nc2ccc(-c3nc(N4CCOCC4)c4ncc(-c5cccnc5)cc4n3)cc2)cc1F | < 50
2 | CN(C)C(=O)c1ccc(NC(=O)Nc2ccc(-c3nc(N4CCOCC4)c4ccc(-c5cncnc5)cc4n3)c(F)c2F)cc1 | 50 to 200
3 | CN(C)[C@H]1CCN(C(=O)c2ccc(NC(=O)Nc3ccc(-c4nc(N5CCOCC5)c5ccc(-c6cncnc6)cc5n4)cc3)cc2)C1 | < 50
4 | CN(C)C(=O)c1ccc(NC(=O)Nc2ccc(-c3nc(N4CCOCC4)c4ccc(-c5ccccn5)cc4n3)cc2)cc1F | < 50
5 | CN(C)C(=O)c1ccc(NC(=O)Nc2ccc(-c3nc(N4CCOCC4)c4ccc(-c5cccc(S(C)(=O)=O)c5)cc4n3)cc2)cc1 | < 50
6 | CN(C)C(=O)c1ccc(NC(=O)Nc2ccc(-c3nc(N4CCOCC4)c4ccc(-c5cncnc5)cc4n3)c(F)c2)cc1 | < 50
7 | CN(C)C(=O)c1ccc(NC(=O)Nc2ccc(-c3nc(N4CCOCC4)c4ccc(-c5ccco5)cc4n3)cn2)cc1 | < 50
8 | COc1ncccc1-c1ccc2c(N3CCOCC3)nc(-c3ccc(NC(=O)Nc4ccc(C(=O)N(C)C)cc4)cc3)nc2c1 | < 50
9 | Cc1ncccc1-c1ccc2c(N3CCOCC3)nc(-c3ccc(NC(=O)Nc4ccc(C(=O)N(C)C)cc4F)cc3)nc2c1 | < 50
10 | CN(C)C(=O)c1ccc(NC(=O)Nc2ccc(-c3nc(N4CCOCC4)c4ncc(-c5ccnnc5)cc4n3)cc2)cc1 | < 50
11 | CN(C)C(=O)c1ccc(NC(=O)Nc2ccc(-c3nc(N4CCOCC4)c4cccc(-c5cccnc5F)c4n3)cc2)cc1 | 50 to 200
12 | COc1ncc(-c2ccc3c(N4CCOCC4)nc(-c4ccc(NC(=O)Nc5ccc(C(=O)N(C)C)c(F)c5)cc4)nc3c2)cn1 | < 50
13 | COc1ncc(-c2ccc3c(N4CCOCC4)nc(-c4ccc(NC(=O)Nc5ccc(C(=O)N(C)C)cc5)cc4F)nc3c2)cn1 | < 50
14 | Cc1ccc(-c2ccc3c(N4CCOCC4)nc(-c4ccc(NC(=O)Nc5ccc(C(=O)N(C)C)cc5)cc4)nc3c2)s1 | 50 to 200
15 | Cc1ccncc1-c1cnc2c(N3CCOCC3)nc(-c3ccc(NC(=O)Nc4ccc(C(=O)N(C)C)cc4)cc3)nc2c1 | < 50
16 | CN(C)C(=O)c1ccc(NC(=O)Nc2ccc(-c3nc(N4CCOCC4)c4ccc(-c5cnc(O)nc5)cc4n3)cc2)cc1 | < 50
17 | CC(O)c1ccc(-c2cnc3c(N4CCOCC4)nc(-c4ccc(NC(=O)Nc5ccc(C(=O)N(C)C)cc5)c(F)c4)nc3c2)o1 (configuration not stated) | < 50
18 | CN(C)C(=O)c1ccc(NC(=O)Nc2ccc(-c3nc(N4CCOCC4)c4ccc(-c5cccnc5F)cc4n3)cc2)cn1 | 50 to 200
19 | CN(C)C(=O)c1ccc(NC(=O)Nc2ccc(-c3nc(N4CCOCC4)c4ccc(-c5ccccn5)cc4n3)c(F)c2)cc1 | < 50

Row | Compound | IC50 [nM]
20 | CN(C)C(=O)c1ccc(NC(=O)Nc2ccc(-c3nc(N4CCOCC4)c4ncc(-c5cccnc5)cc4n3)c(F)c2)cc1 | < 50
21 | Cc1noc(C)c1-c1cc2nc(-c3ccc(NC(=O)Nc4ccc(C(=O)N(C)C)cc4)cc3)nc(N3CCOCC3)c2cc1F | 50 to 200
22 | CN(C)[C@@H]1CCN(C(=O)c2ccc(NC(=O)Nc3ccc(-c4nc(N5CCOCC5)c5ccc(-c6cncnc6)cc5n4)cc3)cc2)C1 | < 50
23 | COc1ccc2c(N3CCOCC3)nc(-c3ccc(NC(=O)Nc4ccc(C(=O)N(C)C)cc4)cc3)nc2c1 | < 50
24 | CN(C)C(=O)c1ccc(NC(=O)Nc2ccc(-c3nc(N4CCOCC4)c4ncc(-c5cnn(C)c5)cc4n3)c(F)c2)cc1 | < 50
25 | CN(C)C(=O)c1ccc(NC(=O)Nc2ccc(-c3nc(N4CCOCC4)c4cc(F)c(-c5cncnc5)cc4n3)c(F)c2)cc1 | 50 to 200
26 | Cn1cc(-c2cnc3c(N4CCOCC4)nc(-c4ccc(NC(=O)Nc5ccc(C(N)=O)cc5)cc4)nc3c2)cn1 | < 50
27 | COc1cccc(-c2ccc3c(N4CCOCC4)nc(-c4ccc(NC(=O)Nc5ccc(C(=O)N(C)C)cc5)cc4)nc3c2)c1 | 50 to 200
28 | CN(C)C(=O)c1ccc(NC(=O)Nc2ccc(-c3nc(N4CCOCC4)c4ncc(-c5cnn(C)c5)cc4n3)cn2)cc1 | < 50
29 | CN(C)C(=O)c1ccc(NC(=O)Nc2ccc(-c3nc(N4CCOCC4)c4ccc(-c5cccnc5)cc4n3)cc2)cc1 | < 50
30 | CC1CN(c2nc(-c3ccc(NC(=O)Nc4ccc(C(=O)N(C)C)cc4)cc3)nc3cc(-c4cncnc4)ccc23)CCO1 (configuration not stated) | < 50
31 | CC1CN(c2nc(-c3ccc(NC(=O)Nc4ccc(C(=O)N(C)C)cc4)c(F)c3)nc3cc(-c4cncnc4)ccc23)CCO1 (configuration not stated) | 50 to 200
32 | Cc1ccc(-c2ccc3c(N4CCOCC4)nc(-c4ccc(NC(=O)Nc5ccc(C(=O)N(C)C)nc5)nc4)nc3c2)o1 | < 50
33 | CN(C)C(=O)c1ccc(NC(=O)Nc2ccc(-c3nc(N4CCOCC4)c4ccc(-c5cccnc5)cc4n3)cc2F)cc1 | < 50
34 | CN(C)[C@H]1CCN(C(=O)c2ccc(NC(=O)Nc3ccc(-c4nc(N5CCOCC5)c5ncc(-c6cnn(C)c6)cc5n4)cc3)cc2)C1 | < 50
35 | COc1ccncc1-c1ccc2c(N3CCOCC3)nc(-c3ccc(NC(=O)Nc4ccc(C(=O)N(C)C)cc4)cc3)nc2c1 | < 50
36 | CN(C)C(=O)c1ccc(NC(=O)Nc2ccc(-c3nc(N4CCOCC4)c4ccc(-c5ccc(C(=O)N(C)C)o5)cc4n3)cc2)cc1 | < 50
37 | Cc1ccc(-c2ccc3c(N4CCOCC4)nc(-c4ccc(NC(=O)Nc5ccc(C(=O)N6CCN(C)CC6)cc5)cc4)nc3c2)o1 | 50 to 200
